{
  "source": "patent US20090203783A1",
  "about": "“THERAPEUTIC AGENT FOR ACUTE CEREBRAL INFARCT” (ONO PHARMACEUTICAL CO., LTD., priority 2005, published 2009)",
  "assay_type_in_all_cases": "in vivo, human",
  "key": {"[1]": {"test_system": "patients of acute cerebral infarction", "experiment": "Example 1 clinical trial, modified Rankin Scale (mRS)", "settings": "10 mg/kg/hr iv, 5 days, after 3 months, administration 5.5 to 6 hours from onset", "experimental": "(§1) As a clinical trial, a double blind placebo-controlled parallel group study was carried out under the following conditions with patients of acute cerebral infarction as the object.\n(c) A patient who undergoes randomization by the study within 6 hours from the first infarction symptom and undergoes the first administration by the blind test (When the patient awoke under an infarction symptom which was not observed before sleeping, start of the infarction symptom is regarded as the started time of sleeping. When the started time is not clear, start of the infarction symptom is regarded as the time when the patient was lastly normal.);\n(f) A patient defined as a score of from 11 to 22 on NIH Stroke Scale, within 1 hour before the first administration;\n(§2) A total of 5 times for one hour intravenous continuous administration at intervals of about 24 hours in each group (administration period: 5 days).\n(§3) Evaluation method: Symptoms of patients were evaluated in accordance with the aforementioned list of marks of NIH Stroke Scale, about 1 month after or about 3 months after the commencement of administration. (2) Modified Rankin Scale (mRS) Evaluation method: Symptoms of patients were scored by classifying the symptoms of patients into the following grades of from 0 to 5, about 1 month after or about 3 months after the commencement of administration. 0: No symptoms at all. 1: No significant disability despite symptoms; able to carry out all usual duties and activities. 2: Slight disability; unable to carry out all previous activities, but able to look after own affairs without assistance. 3: Moderate disability; requiring some help, but able to walk without assistance. 4: Moderately severe disability; unable to walk without assistance and unable to attend to own bodily needs without assistance. 5: Severe disability; bedridden, incontinent and requiring constant nursing care and attention."}, "[2]": {"test_system": "patients of acute cerebral infarction", "experiment": "Example 1 clinical trial, Stroke Impact Scale (SIS) items 1a-1d, 4a", "settings": "about 3 months, 5 hours or more from onset", "experimental": "as §1, §2\nBased on the results of the above-mentioned efficacy evaluation items and safety evaluation items, therapeutic effect of the intravenous continuous administration of (2R)-2-propyloctanoic acid to cerebral infarction patients was evaluated. Additionally, in order to examine the therapeutic effect more in detail, improving effect of the intravenous continuous administration of (2R)-2-propyloctanoic acid for each of (a) [Arm strength], (b) [Grip], (c) strength of the legs [Leg], (d) strength of the ahead of the ankle [Ankle/foot], and (e) language [Naming] was evaluated after about 3 months from the commencement of administration, using the items 1a, 1b, 1c, Id and 4a of the Stroke Impact Scale (SIS). In this connection, the Stroke Impact Scale is a conventionally known evaluation method and can be obtained from an internet <URL: www.chrp.org/, www.strokecenter.org, www2.kumc.edu/coa/> and the like. Specifically, the evaluation of 1a, 1b, 1c and id is carried out by a mode of selecting any one of the answers, A lot of strength, Quite a bit of strength, Some strength, A little strength and No strength at all, for the following questions\nand five scores, four scores, 3 scores, 2 scores and 1 score are given in response to the respective answers.\nAdditionally, the evaluation of 4a is carried out by a mode of selecting any one of the answers, Not difficult at all, A little difficult, Somewhat difficult and Very difficult and Extremely difficult, for the following questions\nIn this case, the group P represents a placebo administration group, and the group L represents a (2R)-2-propyloctanoic acid 4 mg/kg/hr administration group, and the group H represents a (2R)-2-propyloctanoic acid 10 mg/kg/hr administration group. The evaluation result of each item was shown by a form of “(the number of patients having an evaluation score of 4 or more)/(the number of patients evaluated)”."}, "[3]": {"test_system": "patients of acute cerebral infarction", "experiment": "Example 1 clinical trial, safety (adverse events)", "settings": "4 or 10 mg/kg/hr iv, 5 days", "experimental": "as §1, §2\n(§4) Frequency of adverse event and contents thereof (symptom, causal relation and the like)"}, "[4]": {"test_system": "patients of acute cerebral infarction", "experiment": "Example 2 clinical trial, modified Rankin Scale (mRS)", "settings": "7 days", "experimental": "as §3\n(§5) As a clinical trial, a double blind placebo-controlled parallel group study was carried out under the following conditions using patients of acute cerebral infarction as the object.\n(e) A patient whose period of time from the onset of cerebral infarction until commencement of administration is 72 hour or less;\n(§6) A total of 7 times for one hour intravenous continuous administration at intervals of about 24 hours in each group (administration period: 7 days).\n(§7) Symptoms of patients were evaluated after about 1 month or after about 3 months from the commencement of the administration, in accordance with the methods described in the aforementioned [EFFICACY EVALUATION ITEMS] of Example 1."}, "[5]": {"test_system": "patients of acute cerebral infarction", "experiment": "Example 2 clinical trial, safety (adverse events)", "settings": "0.4, 4 or 8 mg/kg/hr iv, 7 days", "experimental": "as §5, §6, §4"}, "[6]": {"test_system": "patients of acute cerebral infarction", "experiment": "Example 3 clinical trial, efficacy evaluation items", "settings": "7 days", "experimental": "as §5, §6, §7"}, "[7]": {"test_system": "patients of acute cerebral infarction", "experiment": "Example 3 clinical trial, safety (adverse events)", "settings": "8 or 12 mg/kg/hr iv, 7 days", "experimental": "as §5, §6, §4"}},
  "data": [
    {"smiles": "CCCCCC[C@@H](CCC)C(=O)O", "note": "[(2R)-2-propyloctanoic acid]", "values": [
      {"measurement": "ratio of the number of patients whose mRS scores became 0 to 3", "setting": "[1]", "result": 31.5, "unit": "%"},
      {"measurement": "ratio of the number of patients whose mRS scores became 0 to 3", "setting": "[1]; patients of less than 80 years, NIH Stroke Scale 11 to 18", "result": 46.0, "unit": "%"},
      {"measurement": "ratio of the number of patients whose mRS scores became 0 to 3", "setting": "[1]; patients of less than 80 years", "result": 39.0, "unit": "%"},
      {"measurement": "SIS Ankle/foot: (number of patients having an evaluation score of 4 or more)/(number of patients evaluated)", "setting": "[2]; Group H, 10 mg/kg/hr", "result": "60/100"},
      {"measurement": "SIS Ankle/foot: ratio of patients with evaluation score of 4 or more", "setting": "[2]; Group H, 10 mg/kg/hr", "result": "(60%)"},
      {"measurement": "SIS Arm strength: (number of patients having an evaluation score of 4 or more)/(number of patients evaluated)", "setting": "[2]; Group H, 10 mg/kg/hr", "result": "44/100"},
      {"measurement": "SIS Arm strength: ratio of patients with evaluation score of 4 or more", "setting": "[2]; Group H, 10 mg/kg/hr", "result": "(44%)"},
      {"measurement": "SIS Grip: (number of patients having an evaluation score of 4 or more)/(number of patients evaluated)", "setting": "[2]; Group H, 10 mg/kg/hr", "result": "46/100"},
      {"measurement": "SIS Grip: ratio of patients with evaluation score of 4 or more", "setting": "[2]; Group H, 10 mg/kg/hr", "result": "(46%)"},
      {"measurement": "SIS Leg: (number of patients having an evaluation score of 4 or more)/(number of patients evaluated)", "setting": "[2]; Group H, 10 mg/kg/hr", "result": "59/100"},
      {"measurement": "SIS Leg: ratio of patients with evaluation score of 4 or more", "setting": "[2]; Group H, 10 mg/kg/hr", "result": "(59%)"},
      {"measurement": "SIS Naming: (number of patients having an evaluation score of 4 or more)/(number of patients evaluated)", "setting": "[2]; Group H, 10 mg/kg/hr", "result": "65/100"},
      {"measurement": "SIS Naming: ratio of patients with evaluation score of 4 or more", "setting": "[2]; Group H, 10 mg/kg/hr", "result": "(65%)"},
      {"measurement": "SIS Ankle/foot: (number of patients having an evaluation score of 4 or more)/(number of patients evaluated)", "setting": "[2]; Group L, 4 mg/kg/hr", "result": "39/88"},
      {"measurement": "SIS Ankle/foot: ratio of patients with evaluation score of 4 or more", "setting": "[2]; Group L, 4 mg/kg/hr", "result": "(44%)"},
      {"measurement": "SIS Arm strength: (number of patients having an evaluation score of 4 or more)/(number of patients evaluated)", "setting": "[2]; Group L, 4 mg/kg/hr", "result": "34/88"},
      {"measurement": "SIS Arm strength: ratio of patients with evaluation score of 4 or more", "setting": "[2]; Group L, 4 mg/kg/hr", "result": "(39%)"},
      {"measurement": "SIS Grip: (number of patients having an evaluation score of 4 or more)/(number of patients evaluated)", "setting": "[2]; Group L, 4 mg/kg/hr", "result": "36/88"},
      {"measurement": "SIS Grip: ratio of patients with evaluation score of 4 or more", "setting": "[2]; Group L, 4 mg/kg/hr", "result": "(41%)"},
      {"measurement": "SIS Leg: (number of patients having an evaluation score of 4 or more)/(number of patients evaluated)", "setting": "[2]; Group L, 4 mg/kg/hr", "result": "46/88"},
      {"measurement": "SIS Leg: ratio of patients with evaluation score of 4 or more", "setting": "[2]; Group L, 4 mg/kg/hr", "result": "(52%)"},
      {"measurement": "SIS Naming: (number of patients having an evaluation score of 4 or more)/(number of patients evaluated)", "setting": "[2]; Group L, 4 mg/kg/hr", "result": "58/88"},
      {"measurement": "SIS Naming: ratio of patients with evaluation score of 4 or more", "setting": "[2]; Group L, 4 mg/kg/hr", "result": "(66%)"},
      {"measurement": "severe adverse events having a different frequency between drug group and placebo group", "setting": "[3]", "result": "not found"},
      {"measurement": "side effect in which its frequency increases depending on the dose", "setting": "[3]", "result": "not found"},
      {"measurement": "ratio of mRS occupying 0 to 2", "setting": "[4]; 0.4 mg/kg/hr iv, after 3 months, JCS I-1 to I-3 and NIH Stroke Scale 7 or more", "result": 48.1, "unit": "%"},
      {"measurement": "ratio of mRS occupying 0 to 2", "setting": "[4]; 4 mg/kg/hr iv, after 3 months, JCS I-1 to I-3 and NIH Stroke Scale 7 or more", "result": 47.9, "unit": "%"},
      {"measurement": "ratio of mRS occupying 0 to 2", "setting": "[4]; 8 mg/kg/hr iv, after 1 month", "result": 45.7, "unit": "%"},
      {"measurement": "ratio of mRS occupying 0 to 2", "setting": "[4]; 8 mg/kg/hr iv, after 3 months", "result": 58.1, "unit": "%"},
      {"measurement": "ratio of mRS occupying 0 to 2", "setting": "[4]; 8 mg/kg/hr iv, after 3 months, JCS I-1 to I-3 and NIH Stroke Scale 7 or more", "result": 63.0, "unit": "%"},
      {"measurement": "ratio of mRS occupying 0 to 2", "setting": "[4]; 8 mg/kg/hr iv, after 3 months, patients with JCS I-1 to I-3 before administration", "result": 69.1, "unit": "%"},
      {"measurement": "severe adverse event having a different frequency between drug group and placebo group", "setting": "[5]", "result": "not found"},
      {"measurement": "side effect in which its frequency increases depending on the dose", "setting": "[5]", "result": "not found"},
      {"measurement": "improving effects of the items shown in the efficacy evaluation items", "setting": "[6]; 8 mg/kg/hr iv", "result": "excellent improving effects"},
      {"measurement": "improving effects of the items shown in the efficacy evaluation items", "setting": "[6]; 12 mg/kg/hr iv", "result": "excellent improving effects"},
      {"measurement": "severe adverse event having a different frequency between drug group and placebo group", "setting": "[7]", "result": "not found"},
      {"measurement": "side effect in which its frequency increases depending on the dose", "setting": "[7]", "result": "not found"}
    ]}
  ]
}
